In article PMC9062502 (RSC Advances, 2019):

Assays:
xanthine oxidase = xanthine oxidase (Bos taurus, UniProt P80457); experiment: Fluorescence-quenching binding to xanthine oxidase; settings: for Affinity n (number of binding sites per enzyme molecule): double-logarithm formula; for Affinity n (number of binding sites per enzyme molecule) / Affinity K sv (dynamic quenching constant): 25 °C; for Affinity K sv (dynamic quenching constant): xanthine oxidase 1.0 μmol L^−1 in PBS, λex 280 nm, emission 335 nm; for Quenching of xanthine oxidase fluorescence (in words): no binding constant value
Sequence of xanthine oxidase (P80457 2-1332): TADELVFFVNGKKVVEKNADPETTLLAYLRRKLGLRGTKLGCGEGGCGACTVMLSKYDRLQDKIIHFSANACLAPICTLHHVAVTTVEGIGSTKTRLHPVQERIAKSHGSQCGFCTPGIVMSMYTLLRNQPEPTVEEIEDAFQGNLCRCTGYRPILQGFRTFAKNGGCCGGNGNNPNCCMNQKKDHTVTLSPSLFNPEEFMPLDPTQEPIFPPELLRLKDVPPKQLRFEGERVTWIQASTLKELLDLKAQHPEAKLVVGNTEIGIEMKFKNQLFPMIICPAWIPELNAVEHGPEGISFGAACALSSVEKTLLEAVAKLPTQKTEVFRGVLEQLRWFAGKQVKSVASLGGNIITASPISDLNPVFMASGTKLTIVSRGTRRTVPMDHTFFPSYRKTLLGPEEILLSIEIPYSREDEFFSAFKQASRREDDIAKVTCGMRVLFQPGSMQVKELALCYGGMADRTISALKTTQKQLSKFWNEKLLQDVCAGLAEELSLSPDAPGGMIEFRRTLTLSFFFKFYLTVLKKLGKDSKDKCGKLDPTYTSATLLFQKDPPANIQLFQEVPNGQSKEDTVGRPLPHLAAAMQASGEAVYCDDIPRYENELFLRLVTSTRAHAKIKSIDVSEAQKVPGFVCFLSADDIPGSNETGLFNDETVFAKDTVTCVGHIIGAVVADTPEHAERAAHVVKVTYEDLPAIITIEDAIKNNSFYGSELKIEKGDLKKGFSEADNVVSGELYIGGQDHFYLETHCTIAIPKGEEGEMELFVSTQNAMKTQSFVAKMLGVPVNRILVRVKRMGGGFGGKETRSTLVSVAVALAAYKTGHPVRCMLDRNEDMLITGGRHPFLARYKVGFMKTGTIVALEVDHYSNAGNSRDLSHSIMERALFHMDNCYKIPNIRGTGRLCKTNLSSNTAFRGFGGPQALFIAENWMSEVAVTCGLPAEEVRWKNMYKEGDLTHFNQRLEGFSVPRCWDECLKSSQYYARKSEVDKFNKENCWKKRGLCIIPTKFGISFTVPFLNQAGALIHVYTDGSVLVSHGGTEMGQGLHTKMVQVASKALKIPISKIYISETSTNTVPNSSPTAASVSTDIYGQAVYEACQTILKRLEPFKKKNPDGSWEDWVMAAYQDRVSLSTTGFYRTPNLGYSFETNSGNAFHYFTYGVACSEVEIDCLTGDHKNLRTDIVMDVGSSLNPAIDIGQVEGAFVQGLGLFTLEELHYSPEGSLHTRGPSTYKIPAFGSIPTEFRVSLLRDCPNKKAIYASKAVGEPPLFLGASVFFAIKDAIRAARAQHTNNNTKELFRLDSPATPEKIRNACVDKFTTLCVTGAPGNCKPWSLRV

[1] = partition coefficient; ref https://pubchem.ncbi.nlm.nih.gov/compound/; cited from earlier work

Row | SMILES | Affinity n (number of binding sites per enzyme molecule) (xanthine oxidase) | Affinity K sv (dynamic quenching constant) (xanthine oxidase) | X log P3 [1] | Quenching of xanthine oxidase fluorescence (in words) (xanthine oxidase) | Fold increase of affinity for xanthine oxidase after glycosylation (xanthine oxidase; aglycone named, 3,7-glycosylation of kaempferol, 3-glycosylation of quercetin, 7-glycosylation of naringenin) [times] | Fold higher affinity for xanthine oxidase than the C2=C3 unsaturated counterpart (xanthine oxidase; dihydromyricetin versus myricetin, naringenin versus apigenin) [times]
1 | O=c1c(-c2ccc(O)cc2)coc2cc(O)ccc12 [Daidzein] | 1.2554 | 0.0230 10^6 |  |  |  | 
2 | O=C(O[C@@H]1Cc2c(O)cc(O)cc2O[C@@H]1c1cc(O)c(O)c(O)c1)c1cc(O)c(O)c(O)c1 [EGCG (2,3-cis), (−)-epigallocatechin gallate] | 1.2461 | 0.0226 10^6 |  |  |  | 
3 | O=c1c(O)c(-c2ccc(O)cc2)oc2cc(O)cc(O)c12 [Kaempferol] | 1.0535 | 0.0225 10^6 | 1.9 |  |  | 
4 | O=c1cc(-c2ccccc2)oc2cc(O)c(O)c(O)c12 [Baicalein] | 1.5312 | 0.1981 10^6 | 1.7 |  |  | 
5 | O=c1cc(-c2ccc(O)cc2)oc2cc(O)cc(O)c12 [Apigenin] | 0.4524 | 0.0285 10^6 | 1.7 |  |  | 
6 | O=c1c(-c2ccc(O)cc2)coc2c([C@@H]3O[C@H](CO)[C@@H](O)[C@H](O)[C@H]3O)c(O)ccc12 [Puerarin] | 1.1801 | 0.0290 10^6 | 0.0 |  |  | 
7 | O=C(O)[C@H]1O[C@@H](Oc2cc3oc(-c4ccccc4)cc(=O)c3c(O)c2O)[C@H](O)[C@@H](O)[C@@H]1O [Baicalin] | 1.8782 | 0.3668 10^6 | 1.1 |  |  | 
8 | O=c1c(O)c(-c2ccc(O)c(O)c2)oc2cc(O)cc(O)c12 [Quercetin] | 1.0614 | 0.0477 10^6 | 1.5 |  |  | 
9 | Oc1cc(O)c2c(c1)O[C@H](c1ccc(O)c(O)c1)[C@H](O)C2 [EC (2,3-cis), epicatechin] |  |  |  | not able to quench the fluorescence |  | 
10 | COc1ccc(-c2coc3cc(O)ccc3c2=O)cc1 [Formononetin] | 0.6866 | 0.0147 10^6 | 2.8 |  |  | 
11 | COc1ccc(-c2oc3cc(O)cc(O)c3c(=O)c2O)cc1 [Kaempferide] |  |  | 2.2 |  |  | 
12 | C[C@@H]1O[C@@H](O[C@H]2[C@H](Oc3cc(O)c4c(c3)O[C@H](c3ccc(O)cc3)CC4=O)O[C@H](CO)[C@@H](O)[C@@H]2O)[C@H](O)[C@H](O)[C@H]1O [Naringin] | 1.6838 | 0.0846 10^6 | −0.5 |  |  | 
13 | Oc1cc(O)c2c(c1)O[C@@H](c1cc(O)c(O)c(O)c1)[C@H](O)C2 [GC (2,3-trans), (−)-gallocatechin] |  |  |  | not able to quench the fluorescence |  | 
14 | C[C@@H]1O[C@@H](OC[C@H]2O[C@@H](Oc3c(-c4ccc(O)c(O)c4)oc4cc(O)cc(O)c4c3=O)[C@H](O)[C@@H](O)[C@@H]2O)[C@H](O)[C@H](O)[C@H]1O [Rutin] | 1.2904 | 0.0532 10^6 | −1.3 |  |  | 
15 | O=c1cc(-c2ccccc2)oc2ccccc12 [Flavone] | 1.3695 | 0.0552 10^6 | 3.6 |  |  | 
16 | O=c1c(O)c(-c2ccc(O)c(O)c2)oc2cc(O)ccc12 [Fisetin] | 1.3663 | 0.0729 10^6 | 2.0 |  |  | 
17 | COc1c(O)cc2oc(-c3ccc(O)cc3)cc(=O)c2c1O [Hispidulin] | 1.2571 | 0.0989 10^6 | 1.7 |  |  | 
18 | O=c1cc(-c2ccccc2)oc2cc(O)cc(O)c12 [Chrysin] | 0.6025 | 0.0195 10^6 | 2.1 |  |  | 
19 | O=C1c2c(O)cc(O)cc2O[C@H](c2cc(O)c(O)c(O)c2)[C@H]1O [Dihydromyricetin] | 1.2262 | 0.0470 10^6 | 1.1 |  |  | 
20 | COc1ccc(-c2cc(=O)c3c(OC)c(OC)c(OC)c(OC)c3o2)cc1OC [Nobiletin] | 2.8371 | 0.9637 10^6 | 3.0 |  |  | 
21 | O=C1C[C@@H](c2ccc(O)cc2)Oc2cc(O)cc(O)c21 [Naringenin] | 1.2510 | 0.0568 10^6 | 2.4 |  | 73.3 | 4676
22 | COc1ccc(-c2cc(=O)c3c(OC)c(OC)c(OC)c(OC)c3o2)cc1 [Tangeretin] | 1.0022 | 0.1498 10^6 | 3.0 |  |  | 
23 | O=c1c(-c2ccc(O)cc2)coc2cc(O)cc(O)c12 [Genistein] | 1.3911 | 0.0537 10^6 | 2.7 |  |  | 
24 | O=c1c(O)c(-c2cc(O)c(O)c(O)c2)oc2cc(O)cc(O)c12 [Myricetin] | 1.0764 | 0.0294 10^6 | 1.2 |  |  | 
25 | O=c1c(O)c(-c2ccccc2)oc2cc(O)cc(O)c12 [Galangin] | 0.9038 | 0.0276 10^6 | 2.3 |  |  | 
26 | O=c1cc(-c2ccc(O)c(O)c2)oc2cc(O)cc(O)c12 [Luteolin] | 1.3087 | 0.0926 10^6 | 1.4 |  |  | 
27 | COc1c(O)cc2occ(-c3ccc(O)cc3)c(=O)c2c1O [Tectorigenin] | 0.6283 | 0.0644 10^6 | 2.6 |  |  | 
28 | C[C@@H]1O[C@@H](Oc2cc(O)c3c(=O)c(O[C@@H]4O[C@@H](C)[C@H](O)[C@@H](O)[C@H]4O)c(-c4ccc(O)cc4)oc3c2)[C@H](O)[C@H](O)[C@H]1O [Kaempferitrin] |  |  | −0.1 |  |  | 
